{
  "source": "patent US20230302014A1",
  "about": "“USES OF GLUCOCORTICOID RECEPTOR (GR) ANTAGONIST AND ANDROGEN RECEPTOR (AR) DEGRADER COMBINATIONS” (ORIC Pharmaceuticals, Inc., priority 2020, published 2023)",
  "type_in_all_cases": "cell-based, Human",
  "key": {"[1]": {"test_system": "GR target genes GILZ, PER1, KLF9, SGK1", "assay": "RT-qPCR of GR target genes after time-dependent AR degrader treatment", "settings": "LNCaP and CWR22PC cells; 100 nM degrader; 30 nM dexamethasone; 0, 6, 10, 13, 15 days", "description": "(§1) Adherent cells or cell pellets harvested for mRNA analysis were first washed once with PBS and then resuspended in 600 µL of RLT lysis buffer (Qiagen Inc.) supplemented with 1% of betamercaptoethanol. RNA was extracted by QIAcube using the RNeasy Mini QIAcube kit (Qiagen#74116) according to manufacturer’s instructions. The extracted RNA samples were then quantified using a Nanodrop 8000 Spectrophotometer. RT-qPCR reactions were set up in triplicate using 3 µL of 3 ng/ µL of RNA in 7 µL of pre-mixed SensiFAST™ SYBR No-ROX One-Step Kit reagents (BIOLINE# BIO-98005). The RT-qPCR reactions were run on a Bio-Rad CFX384 Real-Time PCR System and data was plotted with GraphPad Prism 8 software."}, "[2]": {"test_system": "PSA", "assay": "PSA AlphaLISA assay of cell supernatant (PSA secretion)", "settings": "CWR22PC; CSS media; 21 days; 0.1 nM R1881 + 1 µM ARV-110, + 30 nM dexamethasone, + 0.5 µM compound 1"}, "[3]": {"test_system": "AR protein", "assay": "Western blot of AR protein after dose-dependent AR degrader treatment", "settings": "LNCaP and CWR22PC cells, 3 days, increasing doses 3-1000 nM", "method": "The cells were then trypsinized (Corning#25-053-CI) and harvested for transcript (RT-qPCR) and protein (western blot) analysis.\nCell pellets were washed with PBS and lysed in RIPA buffer (VWR#AAJ63306-AK) supplemented with proteasome inhibitor cocktails (VWR #AAJ65789-LQ). Resuspended cells were briefly sonicated for ~30 seconds using a probe sonicator and incubated on ice for 40 minutes, followed with centrifugation at 12,000 rpm for 15 minutes at 4° C. to collect the supernatant. Protein concentration was quantitated using Quick Start™ Bradford Protein Assay Kit (Bio-Rad #5000201).\nProteins were transferred to nitrocellulose membranes using iBlot 2 Dry Blotting System (ThermoFisher#IB210021) at 20 V for 10 minutes."}, "[4]": {"test_system": "AR target genes KLK3, KLK4, NKX3.1, FKBP5", "assay": "Target gene assay (RT-qPCR, R1881-induced AR target genes)", "settings": "100 pM R1881; for AR target gene FKBP5 induced by R1881 / AR target gene KLK3 induced by R1881 / AR target gene KLK4 induced by R1881 / AR target gene NKX3.1 induced by R1881: 24 hours post treatment", "description": "(§2) 10,000 LNCaP and CWR22PC cells per well were plated in triplicate in poly-lysine coated 96-well plates (ThermoFisher#152039) in 200 µL of RPMI-1640 media supplemented with 10% charcoal-stripped serum. 24 hours later, cells were treated with 100 pM of R1881 and 8-point dilution for enzalutamide, ARD1 or ARD2 with concentrations ranging from 1 µM to 0.46 nM. After incubation at 37° C. for 24 hours, media was removed, and cells were washed once with PBS. 55 µL per well of iScript RT-qPCR sample preparation reagent (Bio-Rad #1708898) was added and incubated for 2 minutes before lysate was collected for mRNA analysis. RT-qPCR was set up in triplicate using 3 µL of lysate plus 7 µL of pre-mixed SensiFAST™ SYBR No-ROX One-Step Kit reagents (BIOLINE, Cat# BIO-98005) per reaction. The RT-qPCR reactions were run on a Bio-Rad CFX384 Real-Time PCR System and data was plotted with GraphPad Prism 8 software.\nas §2, with “15,000” for “10,000”, “24 hours later, cells were treated with 100 pM of R1881 and 8-point dilution for enzalutamide, ARD1 or ARD2 with concentrations ranging from 1 µM to 0.46 nM.” left out, “75” for “55”"}, "[5]": {"test_system": "AR and/or GR target genes KLK4, KLF9, FKBP5, PER1, SGK1", "assay": "Biomarker analysis by RT-qPCR, 48 hours", "settings": "CWR22PC and 22Rv1 cells, 0.1 nM R1881, 1 µM degrader", "description": "CWR22PC and 22RV1 cells were seeded at a density of 2 × 10^5 cells/well in 6-well plates in 2 mL of RPMI-1640 media supplemented with 10% charcoal-stripped serum (CSS). Cells were treated with 100 pM R1881, 30 nM dexamethasone, 0.5 µM compound 1, 1 µM of ARD1 or ARD2, or combinations thereof as indicated and maintained at 37° C. 48 hours later, media was removed, and cells were washed once with PBS and then harvested for mRNA analysis.\nas §1\nCWR22PC and 22Rv1 cells were seeded at a density of 2 × 10^5 cells/well in 6-well plates in 2 mL of RPMI-1640 media supplemented with 10% charcoal-stripped serum (CSS). […] 48 hours later, media was removed, and cells were washed once with PBS and then harvested for mRNA analysis."}, "[6]": {"test_system": "GR mRNA", "assay": "RT-qPCR of GR mRNA after time-dependent AR degrader treatment", "settings": "30 nM dexamethasone, up to 15 days", "description": "5 million of LNCaP and CWR22PC cells per dish were plated in five 15-cm dishes in 20 mL of RPMI-1640 media supplemented with 10% charcoal-stripped serum (CSS) and cultured at 37° C. for 24 hours. Cells were treated with 30 nM of dexamethasone and with 100 nM of ARD1 or ARD2 and maintained at 37° C. until harvest. On Day 0, 6, 10, 13, and 15, cells were trypsinized, cell pellets were washed with 1XPBS and then divided for mRNA and protein preparation.\nas §1\n2 million of LNCaP and CWR22PC cells per dish were plated in five 10-cm dishes in 10 mL of RPMI-1640 media supplemented with 10% charcoal-stripped serum (CSS) and cultured at 37° C. for 24 hours. […]"}},
  "data": [
    {"compound": "N#Cc1ccc(O[C@H]2CC[C@H](NC(=O)c3ccc(N4CCC(CN5CCN(c6cc7c(cc6F)C(=O)N(C6CCC(=O)NC6=O)C7=O)CC5)CC4)nn3)CC2)cc1Cl", "note": "(stereo partly drawn) [ARV-110, N-[trans-4-(3-chloro-4-cyanophenoxy)cyclohexyl]-6-[4-[[4-[2-(2,6-dioxo-3-piperidinyl)-6-fluoro-2,3-dihydro-1,3-dioxo-1H-isoindol-5-yl]-1-piperazinyl]methyl]-1-piperidinyl]-3-pyridazinecarboxamide]", "values": [
      {"measurement": "expression of GR target genes including GILZ, PER1, KLF9, and SGK1", "setting": "[1]", "value": "most of the GR target genes are upregulated in a time dependent manner"},
      {"measurement": "R1881-induced PSA secretion", "setting": "[2]", "value": "blunts"},
      {"measurement": "AR protein levels", "setting": "[3]", "value": "degrades AR protein in a dose-dependent manner"},
      {"measurement": "AR target gene FKBP5 induced by R1881", "setting": "[4]; CWR22PC cells", "value": "inhibit"},
      {"measurement": "AR target gene KLK3 induced by R1881", "setting": "[4]; CWR22PC cells", "value": "inhibit"},
      {"measurement": "AR target gene KLK4 induced by R1881", "setting": "[4]; CWR22PC cells", "value": "inhibit"},
      {"measurement": "AR target gene NKX3.1 induced by R1881", "setting": "[4]; CWR22PC cells", "value": "inhibit"},
      {"measurement": "expression of AR target genes including KLK3, KLK4, NKX3.1, and FKBP5", "setting": "[4]; LNCaP and CWR22PC cells, 24 hours, 1 µM to 0.46 nM, potency compared with enzalutamide", "value": "in a dose-dependent manner with greater potency than AR antagonist enzalutamide"},
      {"measurement": "AR target gene FKBP5 induced by R1881", "setting": "[4]; LNCaP cells", "value": "inhibit"},
      {"measurement": "AR target gene KLK3 induced by R1881", "setting": "[4]; LNCaP cells", "value": "inhibit"},
      {"measurement": "AR target gene KLK4 induced by R1881", "setting": "[4]; LNCaP cells", "value": "inhibit"},
      {"measurement": "AR target gene NKX3.1 induced by R1881", "setting": "[4]; LNCaP cells", "value": "inhibit"},
      {"measurement": "expression induction by R1881 of AR target FKBP5", "setting": "[5]", "value": "completely inhibited"},
      {"measurement": "expression induction by R1881 of AR target KLK4", "setting": "[5]", "value": "completely inhibited"},
      {"measurement": "GR transcript levels", "setting": "[6]; CWR22PC cells (moderate GR pre-treatment), 100 nM degrader", "value": "minimal"},
      {"measurement": "upregulation of GR mRNA levels", "setting": "[6]; GR-negative LNCaP cells, 100 nM ARV-110", "value": "~ 7 fold"}
    ]}
  ]
}
